PMC9269301, “Phytochemical Analysis, Antioxidant, Antimicrobial, and Cytotoxic Activity of Different Extracts of Xanthoparmelia stenophylla Lichen from Stara Planina, Serbia” (Plants, 2022)
≈ marks a conversion by molar mass, not a printed value. Marks after values point to notes of the source that are not given here.

Experiments:
B. cereus (isolate) = assay: Microdilution with resazurin, antibacterial; type: cell-based, Bacillus cereus; conditions: Bacillus cereus, antibiotics
Description: (§1) The tested methanol, acetone, and n-hexane extracts, as well as the component (usnic acid) of X. stenophylla, were dissolved in 10% dimethyl sulfoxide (DMSO) and then diluted into the nutrient liquid medium. DMSO was obtained from Acros Organics (Fair Lawn, NJ, USA). Resazurin was obtained from Alfa Aesar GmbH & Co. (KG, Karlsruhe, Germany).
(§2) The antimicrobial activity of the extracts and components was tested against 19 microorganisms. The experiment involved 15 strains of bacteria (i.e., 6 standard strains: Staphylococcus aureus ATCC 6538, Bacillus subtilis ATCC 6633, Proteus mirabilis ATCC 12453, Pseudomonas aeruginosa ATCC 27853, Klebsiella pneumoniae ATCC 70063, and Escherichia coli ATCC 25922; 9 isolates: Staphylococcus aureus, Escherichia coli, Salmonella enterica, Salmonella Typhimurium, Proteus mirabilis, Klebsiella pneumoniae, Pseudomonas aeruginosa, Bacillus subtilis, and Bacillus cereus). In addition, four fungal strains (i.e., two standard strains: Candida albicans ATCC 10231 and Aspergillus niger ATCC 16888; two isolates: Saccharomyces cerevisiae and Candida albicans) were tested. All isolates were a generous gift from the Institute of Public Health, Kragujevac. The other microorganisms were provided from the collection held by the Microbiology Laboratory Faculty of Science, University of Kragujevac.
(§3) The bacterial suspensions were prepared by the direct colony method. The turbidity of the initial suspension was adjusted using a densitometer (DEN-1, BioSan, Riga, Latvia). When adjusted to the turbidity of the 0.5 McFarland’s standard (Andrews, 2005) the bacteria suspension contained approximately 10^8 colony-forming units (CFU)/mL, and the suspension of yeast contained 10^6 CFU/mL; 1:100 dilutions of the initial suspension were additionally prepared in sterile 0.85% saline. The suspensions of fungal spores were prepared by gentle stripping of spores from slopes with growing mycelia. The resulting suspensions were 1:1000 diluted in sterile 0.85% saline.
(§4) Antimicrobial activity was tested by determining the minimum inhibitory concentrations (MICs) and minimum microbicidal concentrations (MBCs) using the microdilution plate method with resazurin [56]. The 96-well plates were prepared by dispensing 100 μL of Mueller–Hinton broth for bacteria and Sabouard broth for fungi into each well. A 10 μL aliquot from the stock solution of the tested extract or component was added to the first row of the plate. Then, two-fold serial dilutions were performed using a multichannel pipette. The obtained concentration range was from 10 to 0.08 mg/mL. The method is described in detail in [76].
(§5) Each test included growth control and sterility control.
(§6) Minimum microbicidal concentrations were determined by plating 10 μL of samples from wells where no indicator color change or no mycelia growth was recorded on a nutrient agar medium. At the end of the incubation period, the lowest concentration with no growth (no colony) was defined as the minimum microbicidal concentration.

S. Typhimurium (isolate) = assay: Microdilution with resazurin, antibacterial; type: cell-based, Salmonella Typhimurium; conditions: Salmonella enterica, antibiotics
Description: as §1, §2, §3, §4, §5, §6

K. pneumoniae ATCC 70063 = assay: Microdilution with resazurin, antibacterial; type: cell-based, Klebsiella pneumoniae; conditions: Klebsiella pneumoniae, ATCC70063, antibiotics
Description: as §1, §2, §3, §4, §5, §6

K. pneumoniae (isolate) = assay: Microdilution with resazurin, antibacterial; type: cell-based, Klebsiella pneumoniae; conditions: Klebsiella pneumoniae, antibiotics
Description: as §1, §2, §3, §4, §5, §6

P. aeruginosa ATCC 27853 = assay: Microdilution with resazurin, antibacterial; type: cell-based, Pseudomonas aeruginosa; conditions: Pseudomonas aeruginosa, ATCC27853, antibiotics
Description: as §1, §2, §3, §4, §5, §6

P. aeruginosa (isolate) = assay: Microdilution with resazurin, antibacterial; type: cell-based, Pseudomonas aeruginosa; conditions: Pseudomonas aeruginosa, antibiotics
Description: as §1, §2, §3, §4, §5, §6

P. mirabilis (isolate) = assay: Microdilution with resazurin, antibacterial; type: cell-based, Proteus mirabilis; conditions: Proteus mirabilis, antibiotics
Description: as §1, §2, §3, §4, §5, §6

P. mirabilis ATCC 12453 = assay: Microdilution with resazurin, antibacterial; type: cell-based, Proteus mirabilis; conditions: Proteus mirabilis, ATCC12453, antibiotics
Description: as §1, §2, §3, §4, §5, §6

S. aureus ATCC 6538 = assay: Microdilution with resazurin, antibacterial; type: cell-based, Staphylococcus aureus; conditions: Staphylococcus aureus, ATCC6538, antibiotics
Description: as §1, §2, §3, §4, §5, §6

S. aureus (isolate) = assay: Microdilution with resazurin, antibacterial; type: cell-based, Staphylococcus aureus; conditions: Staphylococcus aureus, antibiotics
Description: as §1, §2, §3, §4, §5, §6

B. subtilis (isolate) = assay: Microdilution with resazurin, antibacterial; type: cell-based, Bacillus subtilis; conditions: Bacillus subtilis, antibiotics
Description: as §1, §2, §3, §4, §5, §6

B. subtilis ATCC 6633 = assay: Microdilution with resazurin, antibacterial; type: cell-based, Bacillus subtilis; conditions: Bacillus subtilis, ATCC6633, antibiotics
Description: as §1, §2, §3, §4, §5, §6

E. coli ATCC 25922 = assay: Microdilution with resazurin, antibacterial; type: cell-based, Escherichia coli; conditions: Escherichia coli, ATCC25922, antibiotics
Description: as §1, §2, §3, §4, §5, §6

E. coli (isolate) = assay: Microdilution with resazurin, antibacterial; type: cell-based, Escherichia coli; conditions: Escherichia coli, antibiotics
Description: as §1, §2, §3, §4, §5, §6

S. enterica (isolate) = assay: microbe, parasite or virus in culture; type: cell-based, Salmonella enterica; conditions: Salmonella enterica, S. enterica, antibiotics
Description: as §1, §2, §3, §4, §5, §6

[1] = DPPH radical scavenging activity; type: biochemical; conditions: mean ± SD, triplicate
Description: All chemicals for the antioxidant activity test were purchased from Sigma Aldrich. All measurements were conducted in triplicate, and a Shimadzu UV-1800 spectrophotometer was used for all measurements during antioxidant activity experiments. The IC50 value was used for comparing different radical scavenging effects between investigated extracts, isolated compounds, and positive controls. […] [71] with certain modifications. […] The solution was prepared ex tempore and stored in a tinted bottle in the refrigerator until the experiments were performed. […] The reaction mixture was vortexed and allowed to incubate in the dark for one hour, after which the absorbance was measured at 517 nm relative to the blank. […] Ac stands for absorbance of the control (which contains all reagents, except the tested extract or compound), and As is the absorbance of the sample.

[2] = Hydroxyl radical scavenging activity (2-deoxyribose); type: biochemical; conditions: mean ± SD, triplicate
Description: All chemicals for the antioxidant activity test were purchased from Sigma Aldrich. All measurements were conducted in triplicate, and a Shimadzu UV-1800 spectrophotometer was used for all measurements during antioxidant activity experiments. The IC50 value was used for comparing different radical scavenging effects between investigated extracts, isolated compounds, and positive controls. The ability to inhibit non-site-specific peroxidation mediated by hydroxyl radicals for […], and XSH was determined using the method previously described in the literature. During the experiment, in a reaction mixture that contained 500 μL of 5.6 mM 2-deoxy-D-ribose in KH2PO4-NaOH buffer (50 mM, pH 7.4), 100 μL of 1.0 mM aqueous ascorbic acid, 100 μL of 1.0 mM H2O2, and 200 μL of premixed solution of 100 μM FeCl3 and […] EDTA (1:1 v/v), 100 μL of extract dissolved in water was added. The tubes were vigorously shaken, vortexed, and incubated for 30 min at 50 °C. […] The mixture was vortexed again and heated in a water bath for 30 min at 50 °C. […] Ac stands for absorbance of the control (which contains all reagents, except the tested extract or compound), and As is the absorbance of the sample.

[3] = Superoxide anion radical scavenging activity (NBT/NADH/PMS); type: biochemical; conditions: mean ± SD, triplicate
Description: All chemicals for the antioxidant activity test were purchased from Sigma Aldrich. All measurements were conducted in triplicate, and a Shimadzu UV-1800 spectrophotometer was used for all measurements during antioxidant activity experiments. The IC50 value was used for comparing different radical scavenging effects between investigated extracts, isolated compounds, and positive controls. […] [75] with modifications. […] To initiate the reaction, 0.1 mL of phenazine methosulfate (PMS) solution ([…] in 0.1 M phosphate buffer at pH 7.4) was added to each tube. The mixture was incubated at room temperature for 5 min, and then the absorbance was measured at 560 nm relative to the blank. Ascorbic acid, gallic acid, and Trolox were used as positive controls, and a decrease in absorbance indicated increased superoxide anion radical scavenging activity. […] Ac stands for absorbance of the control (which contains all reagents, except the tested extract or compound), and As is the absorbance of the sample.

S. cerevisiae (isolate) = assay: Microdilution with resazurin, antifungal; type: cell-based, Saccharomyces cerevisiae; conditions: Saccharomyces cerevisiae, antimycotics
Description: as §1, §2, §3
as §4, with “[76]. […]” for “[76].”
Minimum microbicidal concentrations were determined by plating 10 μL of samples from wells where no indicator color change or no mycelia growth was recorded on a nutrient agar medium. […]

A. niger ATCC 16888 = assay: Microdilution with resazurin, antifungal; type: cell-based, Aspergillus niger; conditions: Aspergillus niger, ATCC16888, antimycotics
Description: as §1, §2, §3, §4, §5, §6

C. albicans (isolate) = assay: Microdilution with resazurin, antifungal; type: cell-based, Candida albicans; conditions: Candida albicans, antimycotics
Description: as §1, §2, §3, §4, §5, §6

C. albicans ATCC 10231 = assay: Microdilution with resazurin, antifungal; type: cell-based, Candida albicans; conditions: Candida albicans, ATCC10231, antimycotics
Description: as §1, §2, §3, §4, §5, §6

Structure (SMILES): CC1(C)S[C@@H]2[C@H](NC(=O)[C@H](N)c3ccccc3)C(=O)N2[C@H]1C(=O)O [AMP, ampicillin]
- MBC (B. cereus (isolate); read-out: MBC): 6 µg/mL (≈ 17.2 µM)
- MIC (B. cereus (isolate); read-out: MIC): 4 µg/mL (≈ 11.4 µM)
- MBC (S. Typhimurium (isolate); read-out: MBC): 2 µg/mL (≈ 5.72 µM)
- MIC (S. Typhimurium (isolate); read-out: MIC): 2 µg/mL (≈ 5.72 µM)
- MBC (K. pneumoniae ATCC 70063; read-out: MBC): > 128 µg/mL
- MIC (K. pneumoniae ATCC 70063; read-out: MIC): > 128 µg/mL
- MBC (K. pneumoniae (isolate); read-out: MBC): > 128 µg/mL
- MIC (K. pneumoniae (isolate); read-out: MIC): > 128 µg/mL
- MBC (P. aeruginosa ATCC 27853; read-out: MBC): > 128 µg/mL
- MIC (P. aeruginosa ATCC 27853; read-out: MIC): > 128 µg/mL
- MBC (P. aeruginosa (isolate); read-out: MBC): > 128 µg/mL
- MIC (P. aeruginosa (isolate); read-out: MIC): > 128 µg/mL
- MBC (P. mirabilis (isolate); read-out: MBC): > 128 µg/mL
- MIC (P. mirabilis (isolate); read-out: MIC): > 128 µg/mL
- MBC (P. mirabilis ATCC 12453; read-out: MBC): 4 µg/mL (≈ 11.4 µM)
- MIC (P. mirabilis ATCC 12453; read-out: MIC): 4 µg/mL (≈ 11.4 µM)
- MBC (S. aureus ATCC 6538; read-out: MBC): 0.75 µg/mL (≈ 2.15 µM)
- MIC (S. aureus ATCC 6538; read-out: MIC): 0.25 µg/mL (≈ 0.715 µM)
- MBC (S. aureus (isolate); read-out: MBC): < 0.06 µg/mL
- MIC (S. aureus (isolate); read-out: MIC): < 0.06 µg/mL
- MBC (B. subtilis (isolate); read-out: MBC): 128 µg/mL (≈ 366 µM)
- MIC (B. subtilis (isolate); read-out: MIC): 16 µg/mL (≈ 45.8 µM)
- MBC (B. subtilis ATCC 6633; read-out: MBC): 4 µg/mL (≈ 11.4 µM)
- MIC (B. subtilis ATCC 6633; read-out: MIC): 3 µg/mL (≈ 8.59 µM)
- MBC (E. coli ATCC 25922; read-out: MBC): 0.5 µg/mL (≈ 1.43 µM)
- MIC (E. coli ATCC 25922; read-out: MIC): 0.37 µg/mL (≈ 1.06 µM)
- MBC (E. coli (isolate); read-out: MBC): 1.2 µg/mL (≈ 3.43 µM)
- MIC (E. coli (isolate); read-out: MIC): 2.1 µg/mL (≈ 6.01 µM)
- MBC (S. enterica (isolate); read-out: MBC): 1 µg/mL (≈ 2.86 µM)
- MIC (S. enterica (isolate); read-out: MIC): 1 µg/mL (≈ 2.86 µM)

Structure (SMILES): O=C1O[C@H]([C@@H](O)CO)C(O)=C1O [Ascorbic acid, ascorbic acid]
- DPPH Radical Scavenging Activity (IC50) [1]: 6.31 ± 0.78 ^a,b,c,d µg/mL
- Hydroxyl Radical Scavenging Activity (IC50) [2]: 155.91 ± 0.64 ^a,d,e µg/mL
- Superoxide Anion Radical Scavenging Activity (IC50) [3]: 105.62 ± 0.84 ^c,d,e,f µg/mL

Structure (SMILES): OC(Cn1cncn1)(Cn1cncn1)c1ccc(F)cc1F [FC, fluconazole]
- MFC (S. cerevisiae (isolate); read-out: MFC): 7.81 µg/mL (≈ 25.5 µM)
- MIC (S. cerevisiae (isolate); read-out: MIC): 7.81 µg/mL (≈ 25.5 µM)
- MFC (A. niger ATCC 16888; read-out: MFC): 500 µg/mL (≈ 1630 µM)
- MIC (A. niger ATCC 16888; read-out: MIC): 250 µg/mL (≈ 816 µM)
- MFC (C. albicans (isolate); read-out: MFC): 62.5 µg/mL (≈ 204 µM)
- MIC (C. albicans (isolate); read-out: MIC): 62.5 µg/mL (≈ 204 µM)
- MFC (C. albicans ATCC 10231; read-out: MFC): 31.2 µg/mL (≈ 102 µM)
- MIC (C. albicans ATCC 10231; read-out: MIC): 31.2 µg/mL (≈ 102 µM)

Structure (SMILES): O=C(O)c1cc(O)c(O)c(O)c1 [Gallic acid, gallic acid]
- DPPH Radical Scavenging Activity (IC50) [1]: 3.72 ± 0.65 ^a,b,c,d,e µg/mL
- Hydroxyl Radical Scavenging Activity (IC50) [2]: 45.12 ± 0.51 ^a,b,c,d,e µg/mL
- Superoxide Anion Radical Scavenging Activity (IC50) [3]: 68.55 ± 0.45 ^a,b,c,d,e µg/mL

Structure (SMILES): Cc1c(C)c2c(c(C)c1O)CCC(C)(C(=O)O)O2 (centres unmarked) [Trolox, 6-hydroxy-2,5,7,8-tetramethylchroman-2-carboxylic acid]
- DPPH Radical Scavenging Activity (IC50) [1]: 10.79 ± 0.83 ^a,b,c,d,e µg/mL
- Hydroxyl Radical Scavenging Activity (IC50) [2]: 131.45 ± 0.56 ^c,e µg/mL
- Superoxide Anion Radical Scavenging Activity (IC50) [3]: 135.14 ± 0.88 ^a,b,d,e,f µg/mL
